This is an account of results in publication PMC10482350, “Nucleoside diphosphate kinases 1 and 2 regulate a protective liver response to a high-fat diet” (Science Advances, 2023).

The target of data set [1] is T1, NME1 (Mus musculus, UniProt P15532). Nature of the data set: histidine phosphorylation (native gel, native MS); release of NME1 from CoA beads. It counts as biochemical. More on the design: full-length recombinant.
Data set [2] deals with T2, NME2 (Mus musculus, UniProt Q01768).
T2 construct: full-length, GST-tagged
Description: CoA-agarose pull-down of GST-NME2 from bacterial extract. In kind it is cell-based.

The target in data set [3] is T1, NME1. Nature of the data set: ITC; crystal structure ([…] Å), native MS, nanoDSF. Also noted: full-length, His-tag cleaved by TEV. In kind it is binding. Background: Isothermal titration calorimetry measures the heat released or taken up as one component is titrated into another.
Data set [4] has as its target T1, NME1. Description: dephosphorylation of phosphohistidine NME1 (immunoblot). Also noted: full-length recombinant. It counts as biochemical.
Data set [5] concerns the molecule itself. Description: native MS; recombinant purified NME1 without ligand or incubated with CoA, AcCoA, SucCoA, dephospho-CoA or ATP; charge states +22 and +21 of the hexamer; methods in the Supplementary Materials.

T2 sequence (Q01768 whole entry): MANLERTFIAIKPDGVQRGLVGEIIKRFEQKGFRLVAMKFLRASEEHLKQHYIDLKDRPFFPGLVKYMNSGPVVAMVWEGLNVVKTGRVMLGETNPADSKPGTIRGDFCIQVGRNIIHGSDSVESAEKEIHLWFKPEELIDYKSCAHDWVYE

With `Nc1ncnc2c1ncn2[C@@H]1O[C@H](COP(=O)(O)OP(=O)(O)OP(=O)(O)O)[C@@H](O)[C@H]1O` [ATP], the “histidine phosphorylation (native gel, native MS); release of NME1 from CoA bead” value in data set [1] is “recombinant murine NME1 purified from bacteria could be phosphorylated by ATP and subsequently dephosphorylated by ADP or guanosine diphosphate (GDP)”. As a reminder, the Kd is the constant that tells how readily two partners part at equilibrium. Consider `CC(C)(COP(=O)(O)OP(=O)(O)OC[C@H]1O[C@@H](n2cnc3c(N)ncnc32)[C@H](O)[C@@H]1OP(=O)(O)O)[C@@H](O)C(=O)NCCC(=O)NCCS` [CoA], for which the “CoA-agarose pull-down of GST-NME2 from bacterial extract” value in data set [2] is recorded as “NME2 exhibits an ATP-sensitive CoA binding activity comparable to that of NME1 (fig. S11A)”. For the same molecule, in data set [3], the Kd was around 18 µM.

With `Nc1nc2c(ncn2[C@@H]2O[C@H](CO[P@](=O)(O)OP(=O)(O)O)[C@@H](O)[C@H]2O)c(=O)[nH]1` [GDP], in data set [4], the “dephosphorylation of phosphohistidine NME1 (immunoblot)” value is “phosphorylated by ATP and subsequently dephosphorylated by ADP or guanosine diphosphate (GDP)”.

B1: nucleoside diphosphate kinase 1 (NME1), recombinant murine (enzyme, mouse, UniProt P15532 1-152, looked up)
chain: MANSERTFIAIKPDGVQRGLVGEIIKRFEQKGFRLVGLKFLQASEDLLKEHYTDLKDRPFFTGLVKYMHSGPVVAMVWEGLNVVKTGRVMLGETNPADSKPGTIRGDFCIQVGRNIIHGSDSVKSAEKEISLWFQPEELVEYKSCAQNWIYE
notes: also called NDPK 1; WT NME1; source: E. coli BL21-Gold(D3), purified (HisTrap, TEV cleavage, Superdex 200 SEC); not shown: His6, N-terminal, cleaved
One may read the stoichiometry N as a count of units in the complex or per binding partner. On to B1, for which the “stoichiometry N” value in data set [5] is 6.
